Measurements taken from patent US10017827B2, “Herbicide-resistant sunflower plants with multiple herbicide resistant alleles of AHASL1 and methods of use” (BASF AGROCHEMICAL PRODUCTS B.V., priority 2007, dated 2018).
Where two headings read alike, the source gives them in different places. Marks after values point to notes of the source that are not given here.

Experiments:
[1] = system: AHAS enzyme, WT line (B7); test: Enzyme assay for AHAS activity, Sets 1 and 2; conditions: 100 μM imazamox
sunflower line B770 (WT) = test: Greenhouse whole-plant response to metsulfuron; conditions: 14 DAT
[2] = system: sunflower hybrid cmsGM40xBTSu-R1 (A122T/P197L); test: Greenhouse whole-plant response to metsulfuron; conditions: 14 DAT
[3] = system: sunflower hybrid cmsGM40xL4 (A122T/A122T); test: Greenhouse whole-plant response to metsulfuron; conditions: 14 DAT
[4] = system: sunflower line GM1606 (A122T/A122T); test: Greenhouse whole-plant response to metsulfuron; conditions: 14 DAT
[5] = system: sunflower line L4 (A122T/A122T); test: Greenhouse whole-plant response to metsulfuron; conditions: 14 DAT
[6] = system: sunflower line GM40 (A122T/A122T); test: Greenhouse whole-plant response to metsulfuron; conditions: 14 DAT
[7] = system: sunflower line L5 (BTK 47, WT susceptible); conditions: for biomass accumulation, % of untreated: L5, 14 DAT
[8] = system: sunflower line GM40 (A122T); assay type: in vivo; conditions: 160 gr/ha at V4, 14 DAT
[9] = system: sunflower line L4 (A122T); test: Greenhouse whole-plant response to imazapyr; assay type: in vivo; conditions: 14 DAT
Source text: (§1) Experiment was arranged as a randomized block design with a full factorial (sunflower line×treatment) arrangement of treatments and 10 replications.

[10] = system: sunflower line L3 (cmsGM40, A122T); test: Greenhouse whole-plant response to imazapyr; assay type: in vivo; conditions: 14 DAT
Source text: as §1

[11] = system: A122T sunflower genotypes (mean of H2, L3, L4); test: Greenhouse whole-plant response to imazapyr; assay type: in vivo; conditions: 14 DAT
Source text: as §1

[12] = A122T mean (H2,L3,L4), 2x (160 g ai/ha)
[13] = A122T mean (H2,L3,L4), 3x (240 g ai/ha)

COCc1cnc(C2=NC(C)(C(C)C)C(=O)N2)c(C(=O)O)c1 (stereo not shown) [imazamox]
AHAS activity, % of untreated control ([1]; Set 1): 17%
AHAS activity, % of untreated control ([1]; Set 2): 11%

COC(=O)c1ccccc1S(=O)(=O)NC(=O)Nc1nc(C)nc(OC)n1 [metsulfuron]
Dry Matter accumulation (DMA) (sunflower line B770 (WT); 1X (5 g ai./ha)): 28.43^b
Mean Height Reduction (PH) (sunflower line B770 (WT); 1X (5 g ai./ha)): 21.73^a*
Phytotoxicity Index (PI, 0-9) (sunflower line B770 (WT); 1X (5 g ai./ha)): 8.50^bc
Dry Matter accumulation (DMA) (sunflower line B770 (WT); 2X (10 g ai./ha)): 28.77^b
Mean Height Reduction (PH) (sunflower line B770 (WT); 2X (10 g ai./ha)): 18.20^a
Phytotoxicity Index (PI, 0-9) (sunflower line B770 (WT); 2X (10 g ai./ha)): 9.00^d
Mean Height Reduction (PH) ([2]; 1X (5 g ai./ha)): 77.04^b
Phytotoxicity Index (PI, 0-9) ([2]; 1X (5 g ai./ha)): 0.00^a
Dry Matter accumulation (DMA) ([2]; 2X (10 g ai./ha)): 72.66^c
Dry Matter accumulation (DMA) ([3]; 1X (5 g ai./ha)): 19.90^a
Mean Height Reduction (PH) ([3]; 1X (5 g ai./ha)): 22.45^a
Phytotoxicity Index (PI, 0-9) ([3]; 1X (5 g ai./ha)): 8.67^d
Dry Matter accumulation (DMA) ([3]; 2X (10 g ai./ha)): 18.23^a
Mean Height Reduction (PH) ([3]; 2X (10 g ai./ha)): 20.56^a
Phytotoxicity Index (PI, 0-9) ([3]; 2X (10 g ai./ha)): 8.82^cd
Dry Matter accumulation (DMA) ([4]; 1X (5 g ai./ha)): 30.39^b
Mean Height Reduction (PH) ([4]; 1X (5 g ai./ha)): 21.55^a
Phytotoxicity Index (PI, 0-9) ([4]; 1X (5 g ai./ha)): 8.70^d
Dry Matter accumulation (DMA) ([4]; 2X (10 g ai./ha)): 20.45^a
Mean Height Reduction (PH) ([4]; 2X (10 g ai./ha)): 21.70^a
Phytotoxicity Index (PI, 0-9) ([4]; 2X (10 g ai./ha)): 9.00^d
Dry Matter accumulation (DMA) ([5]; 1X (5 g ai./ha)): 25.40^ab
Mean Height Reduction (PH) ([5]; 1X (5 g ai./ha)): 19.47^a
Phytotoxicity Index (PI, 0-9) ([5]; 1X (5 g ai./ha)): 8.25^b
Dry Matter accumulation (DMA) ([5]; 2X (10 g ai./ha)): 18.80^a
Mean Height Reduction (PH) ([5]; 2X (10 g ai./ha)): 18.73^a
Phytotoxicity Index (PI, 0-9) ([5]; 2X (10 g ai./ha)): 8.5^c
Dry Matter accumulation (DMA) ([6]; 1X (5 g ai./ha)): 25.73^ab
Mean Height Reduction (PH) ([6]; 1X (5 g ai./ha)): 21.39^a
Phytotoxicity Index (PI, 0-9) ([6]; 1X (5 g ai./ha)): 9.00^d
Dry Matter accumulation (DMA) ([6]; 2X (10 g ai./ha)): 20.69^a
Mean Height Reduction (PH) ([6]; 2X (10 g ai./ha)): 21.17^a
Phytotoxicity Index (PI, 0-9) ([6]; 2X (10 g ai./ha)): 9.00^d

CC(C)C1(C)N=C(c2ncccc2C(=O)O)NC1=O (stereo not shown) [imazapyr]
biomass accumulation, % of untreated ([7]; 1x (80 g ai/ha)): 15.0%
biomass accumulation, % of untreated ([7]; 2x (160 g ai/ha)): 15.0%
biomass accumulation, % of untreated ([7]; 3x (240 g ai/ha)): 15.0%
biomass accumulation, % of untreated ([7]; 4x (320 g ai/ha)): 15.0%
biomass accumulation, % of untreated ([7]; 5x (400 g ai/ha)): 15.0%
biomass accumulation, % of untreated ([7]; 6x (480 g ai/ha)): 15.0%
Phytotoxicity Index (0-9) ([7]; in vivo): 9
Mean Phytotoxicity Index (PI, 0-9) [8]: 0.2
Phytotoxicity Index (0-9) ([9]; 0.5x (40 g ai/ha)): 0.0
biomass accumulation, % of untreated ([9]; 0.5x (40 g ai/ha)): 100.0%
plant height, % of untreated ([9]; 0.5x (40 g ai/ha)): 100.0%
Phytotoxicity Index (0-9) ([9]; 1x (80 g ai/ha)): 0.0
plant height, % of untreated ([9]; 1x (80 g ai/ha)): 100.0%
Phytotoxicity Index (0-9) ([9]; 2x (160 g ai/ha)): 0.0
biomass accumulation, % of untreated ([9]; 2x (160 g ai/ha)): 97.0%
Phytotoxicity Index (0-9) ([9]; 3x (240 g ai/ha)): 0.0
plant height, % of untreated ([9]; 3x (240 g ai/ha)): 97.0%
Phytotoxicity Index (0-9) ([9]; 4x (320 g ai/ha)): 0.0
Phytotoxicity Index (0-9) ([9]; 5x (400 g ai/ha)): 0.0
Phytotoxicity Index (0-9) ([9]; 6x (480 g ai/ha)): 0.5
Phytotoxicity Index (0-9) ([10]; 0.5x (40 g ai/ha)): 0.4
Phytotoxicity Index (0-9) ([10]; 1x (80 g ai/ha)): 0.4
Phytotoxicity Index (0-9) ([10]; 2x (160 g ai/ha)): 0.4
plant height, % of untreated ([10]; 2x (160 g ai/ha)): 92.0%
Phytotoxicity Index (0-9) ([10]; 3x (240 g ai/ha)): 0.5
Phytotoxicity Index (0-9) ([10]; 4x (320 g ai/ha)): 1.0
biomass accumulation, % of untreated ([10]; 4x (320 g ai/ha)): 75.0%
Phytotoxicity Index (0-9) ([10]; 5x (400 g ai/ha)): 2.0
Phytotoxicity Index (0-9) ([10]; 6x (480 g ai/ha)): 2.5
height reduction, % of untreated controls ([11]; A122T homozygous, 0.5x): 0.1%
height reduction, % of untreated controls ([11]; A122T homozygous, 6x): 18.8%
reduction in biomass weight ([11]; A122T homozygous, higher dose (6x)): 25%
Phytotoxicity Index (0-9) ([11]; A122T mean (H2,L3,L4), 0.5x (40 g ai/ha)): 0.3
Phytotoxicity Index (0-9) ([11]; A122T mean (H2,L3,L4), 1x (80 g ai/ha)): 0.3
Phytotoxicity Index (0-9) [11, 12]: 0.3
plant height, % of untreated [11, 12]: 98.0%
Phytotoxicity Index (0-9) [11, 13]: 0.3
biomass accumulation, % of untreated [11, 13]: 90.0** %
Phytotoxicity Index (0-9) ([11]; A122T mean (H2,L3,L4), 4x (320 g ai/ha)): 0.5
Phytotoxicity Index (0-9) ([11]; A122T mean (H2,L3,L4), 5x (400 g ai/ha)): 0.8
Phytotoxicity Index (0-9) ([11]; A122T mean (H2,L3,L4), 6x (480 g ai/ha)): 1.2
